Experimental data as given in PMC6587462 (Journal of Clinical Pharmacology, 2018).
“And” between values parts separate entries of the source, which are not always exact repeats. Identical values can stand only once. “Also recorded” adds a separate entry of the source. Like-named read-outs stand apart in the source and are kept apart here.

Experiments:
[1] = target: T1, P‐glycoprotein (P‐gp) efflux transporter (Homo sapiens, UniProt P08183); experiment: In vitro interaction with P-gp; format: in vitro ADME
[2] = netupitant; cited from earlier work
[3] = Binding to plasma proteins; format: in vitro ADME; conditions: human, plasma
plasma proteins = experiment: Binding to plasma proteins; format: in vitro ADME
[4] = Apical-to-basolateral permeability in Caco-2 monolayer; format: in vitro ADME; conditions: human
[5] = Study 12 PK/safety and DDI study in cancer patients; format: in vivo; conditions: human, plasma, oral
[6] = target: T1, P‐glycoprotein (P‐gp) efflux transporter; conditions: in vitro, cited from earlier work
NK1 receptor [7] = conditions: PET; at 6 hours after single 300-mg oral netupitant; cited from earlier work
CYP3A4 = CYP3A4 (Homo sapiens, UniProt P08684); conditions: in vitro; cited from earlier work
NK1 receptor [8] = target: NK1 receptor (Homo sapiens, UniProt P25103); conditions: NG108-15 cells; netupitant and palonosetron combined; cited from earlier work
clinical = conditions: human, in vivo, po
NG108‐15 cells = conditions: netupitant and palonosetron combined; cited from earlier work
[9] = cited from earlier work
[10] = absorption, binding, metabolic, or excretory level; cited from earlier work
[11] = Study 11 population PK, patients (117), NEPA FDC, cited from earlier work
[12] = Study 2 ADME study of [14C]-netupitant; format: in vivo, human; conditions: estimated at day 29 after administration
[13] = Study 11 population PK/pharmacodynamic study in cancer patients; format: in vivo, human; conditions: population PK modeling in patients
[14] = Oral NEPA PK in cancer patients, summary across studies; format: in vivo; conditions: human, plasma
[15] = Biopharmaceutics Classification System class and solubility in water; format: physicochemical
[16] = Octanol-water partition coefficient; format: physicochemical
[17] = Study 10 comparative bioavailability study; format: in vivo, human
[18] = Absolute / oral bioavailability; format: in vivo; conditions: human, plasma, oral
[19] = design: species or system human; conditions: estimated from t1/2
[20] = Study 5 bioequivalence study, PK after single oral NEPA; format: in vivo, human
[21] = Study 4 pilot bioequivalence study, PK after single oral NEPA; format: in vivo; conditions: human, plasma
[22] = cited from earlier work; for CL/F / Cmax / Tmax / Vz/F / t1/2: Study 8, healthy volunteers (22), NEPA FDC, mean (CV%)
CYP2D6 = CYP2D6 (Homo sapiens, UniProt P10635); experiment: In vitro CYP2D6 inhibition; format: in vitro ADME
[23] = Study 9 replicate crossover bioequivalence study; format: in vivo, human
[24] = cited from earlier work; remark: listed apart in the source
[25] = single-dose NEPA with 400-mg ketoconazole for 12 days vs alone
[26] = single-dose NEPA with daily 600-mg rifampicin for 17 days

T1 sequence (P08183 whole entry): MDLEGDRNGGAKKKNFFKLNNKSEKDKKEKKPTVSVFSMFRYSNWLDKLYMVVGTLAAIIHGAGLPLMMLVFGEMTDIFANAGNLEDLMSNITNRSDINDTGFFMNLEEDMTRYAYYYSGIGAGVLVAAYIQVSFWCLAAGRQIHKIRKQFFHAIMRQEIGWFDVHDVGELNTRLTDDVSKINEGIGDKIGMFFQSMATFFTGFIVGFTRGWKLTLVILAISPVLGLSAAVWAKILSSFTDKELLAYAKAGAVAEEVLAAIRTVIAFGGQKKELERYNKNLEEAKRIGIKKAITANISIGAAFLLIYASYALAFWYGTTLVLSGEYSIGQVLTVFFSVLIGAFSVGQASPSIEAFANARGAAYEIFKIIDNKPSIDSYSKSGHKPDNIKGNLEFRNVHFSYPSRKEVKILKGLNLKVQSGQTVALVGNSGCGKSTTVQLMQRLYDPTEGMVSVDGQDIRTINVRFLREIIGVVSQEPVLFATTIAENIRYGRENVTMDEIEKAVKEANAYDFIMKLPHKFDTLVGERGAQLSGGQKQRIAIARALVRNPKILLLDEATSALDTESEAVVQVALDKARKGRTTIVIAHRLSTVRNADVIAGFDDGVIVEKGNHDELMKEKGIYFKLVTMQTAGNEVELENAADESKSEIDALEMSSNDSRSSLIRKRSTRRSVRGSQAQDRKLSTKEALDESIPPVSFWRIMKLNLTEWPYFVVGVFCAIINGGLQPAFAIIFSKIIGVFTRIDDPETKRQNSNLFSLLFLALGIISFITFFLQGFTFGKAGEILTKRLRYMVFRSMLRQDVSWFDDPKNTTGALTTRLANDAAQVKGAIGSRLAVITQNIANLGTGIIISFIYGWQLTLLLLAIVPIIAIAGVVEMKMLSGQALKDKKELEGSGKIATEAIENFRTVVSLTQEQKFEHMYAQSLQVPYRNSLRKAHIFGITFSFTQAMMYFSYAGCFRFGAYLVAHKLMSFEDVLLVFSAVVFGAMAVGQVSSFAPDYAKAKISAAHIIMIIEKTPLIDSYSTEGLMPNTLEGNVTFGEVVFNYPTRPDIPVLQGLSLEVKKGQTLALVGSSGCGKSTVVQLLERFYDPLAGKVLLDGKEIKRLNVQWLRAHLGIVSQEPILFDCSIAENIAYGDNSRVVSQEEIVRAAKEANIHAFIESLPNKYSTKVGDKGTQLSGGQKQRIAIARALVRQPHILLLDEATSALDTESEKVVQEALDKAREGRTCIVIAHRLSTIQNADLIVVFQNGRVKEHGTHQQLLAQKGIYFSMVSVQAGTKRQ
Chain of CYP3A4 (P08684 whole entry): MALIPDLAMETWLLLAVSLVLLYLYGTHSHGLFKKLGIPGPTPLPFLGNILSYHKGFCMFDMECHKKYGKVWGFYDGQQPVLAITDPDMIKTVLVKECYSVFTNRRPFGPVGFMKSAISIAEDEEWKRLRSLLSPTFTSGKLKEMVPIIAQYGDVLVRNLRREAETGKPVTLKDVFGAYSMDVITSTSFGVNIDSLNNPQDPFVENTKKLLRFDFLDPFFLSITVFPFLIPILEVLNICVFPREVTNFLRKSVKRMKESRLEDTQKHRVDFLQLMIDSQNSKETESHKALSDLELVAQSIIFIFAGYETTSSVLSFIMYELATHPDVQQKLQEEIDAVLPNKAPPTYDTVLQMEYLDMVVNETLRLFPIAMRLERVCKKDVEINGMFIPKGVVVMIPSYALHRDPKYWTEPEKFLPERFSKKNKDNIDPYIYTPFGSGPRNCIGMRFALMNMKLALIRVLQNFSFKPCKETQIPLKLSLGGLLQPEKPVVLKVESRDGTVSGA
Chain of NK1 receptor (Homo sapiens, UniProt P25103) (P25103 whole entry, species assumed): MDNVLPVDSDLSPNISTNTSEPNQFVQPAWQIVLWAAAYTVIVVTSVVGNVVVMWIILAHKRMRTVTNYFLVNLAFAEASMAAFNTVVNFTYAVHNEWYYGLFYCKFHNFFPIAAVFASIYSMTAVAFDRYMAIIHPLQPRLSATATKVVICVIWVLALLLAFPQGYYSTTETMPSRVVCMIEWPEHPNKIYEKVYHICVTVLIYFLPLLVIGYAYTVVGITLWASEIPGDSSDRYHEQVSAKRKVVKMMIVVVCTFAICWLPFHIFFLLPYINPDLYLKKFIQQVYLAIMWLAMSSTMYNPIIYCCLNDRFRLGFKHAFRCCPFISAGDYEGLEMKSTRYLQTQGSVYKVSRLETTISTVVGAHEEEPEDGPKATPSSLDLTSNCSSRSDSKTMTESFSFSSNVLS
Chain of CYP2D6 (P10635 whole entry): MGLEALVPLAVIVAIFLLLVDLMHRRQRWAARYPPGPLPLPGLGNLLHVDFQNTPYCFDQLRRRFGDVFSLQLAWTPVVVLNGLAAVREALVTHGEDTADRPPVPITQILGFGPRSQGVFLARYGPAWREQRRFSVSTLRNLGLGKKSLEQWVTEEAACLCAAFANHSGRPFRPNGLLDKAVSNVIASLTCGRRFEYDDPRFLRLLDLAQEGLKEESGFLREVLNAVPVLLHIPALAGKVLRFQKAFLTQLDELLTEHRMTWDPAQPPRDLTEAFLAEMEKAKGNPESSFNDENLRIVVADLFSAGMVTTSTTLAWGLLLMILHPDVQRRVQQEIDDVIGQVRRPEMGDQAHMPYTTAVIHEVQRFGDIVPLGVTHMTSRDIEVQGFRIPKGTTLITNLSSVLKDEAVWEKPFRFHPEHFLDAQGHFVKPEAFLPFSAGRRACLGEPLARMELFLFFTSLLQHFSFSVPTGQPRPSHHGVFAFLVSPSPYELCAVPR

- Ki [1]: 3 µM
- fold by which unbound peak plasma concentration is lower than P-gp Ki ([1]; human, not told, oral): approximately 5 fold
- fraction unbound [3]: < 0.01
- binding to plasma proteins (plasma proteins): > 99%
- Papp [4]: > 20 ×10⁻⁶ cm/s
- CL/F (Healthy volunteers, Min-Max of study means, single oral NEPA): 16.3 to 26.3 L/h
- time after dosing until which plasma concentrations were quantifiable (after NEPA, M2 below LLOQ thereafter, others up to last observation time): 10 days
- plasma concentration as fraction of mean Cmax (at 3 hours after oral NEPA): approximately 80%
- peak plasma concentration of unbound netupitant (human, in vivo): 0.65 µM
- Cmax (clinical): 374 to 650 ng/mL
- Tmax (clinical): 4.36 to 5.66 h
- Vd/F (clinical): 1980 to 3310 L
- half-life (clinical): 75.3 to 101 h
- fraction of netupitant eliminated [12]: approximately 90%
- absorption lag time [13]: 0.77 h
- absorption rate constant [13]: 0.956 h⁻¹
- Cmax [14]: 477 to 567 ng/mL
- Tmax [14]: 4.02 to 4.56 h
- Vd/F [14]: 1660 to 2260 L
- Biopharmaceutics Classification System class [15]: 2
- logP [16]: 5.1
- CL/F ([17]; Study 10, healthy volunteers (24), NEPA FDC standard dissolution, mean (CV%)): 25.7 (40.9) L/h
- Cmax ([17]; human, plasma, oral): 374 ng/mL
- Tmax ([17]; human, plasma, oral): 5.15 h
- Vd/F ([17]; human, plasma, oral): 3160 L
- half-life ([17]; human, plasma, oral): 89.9 h
- bioavailability [18]: 63 to 87%
- fraction from previous NEPA administration eliminated at next dose ([19]; chemotherapy every 2 weeks): approximately 95%
- fraction from previous NEPA administration eliminated at next dose ([19]; chemotherapy every 3 weeks): approximately 99%
- CL/F ([20]; Study 5, healthy volunteers (47), single oral NEPA FDC, mean (CV%)): 26.3 (47.4) L/h
- Cmax ([20]; human, plasma, po): 434 ng/mL
- Tmax ([20]; human, plasma, po): 5.07 h
- Vd/F ([20]; human, plasma, po): 3310 L
- half-life ([20]; human, plasma, po): 95.6 h
- Tmax [21]: 5.38 h
- Vd/F [21]: 2780 L
- half-life [21]: 89.2 h
- inhibition or induction of CYP2D6 (CYP2D6): not an inhibitor or inducer
- CL/F ([23]; Study 9, healthy volunteers (82), NEPA FDC commercial product, mean (CV%)): 26.2 (51.2) L/h
- Cmax ([23]; human, plasma, oral): 454 ng/mL
- Tmax ([23]; human, plasma, oral): 5.01 h
- Vd/F ([23]; human, plasma, oral): 2740 L
- half-life ([23]; human, plasma, oral): 76.6 h
SMILES: Cc1ccccc1-c1cc(N2CCN(C)CC2)ncc1N(C)C(=O)C(C)(C)c1cc(C(F)(F)F)cc(C(F)(F)F)c1 [netupitant]
- solubility in water [2]: very slightly soluble
- Vd/F [5]: 1860 to 2260 L
- substrate of P-gp (MDR1/P-gp) efflux transporter [6]: not a P‐gp substrate; also recorded: not substrates
- inhibitor of P-gp efflux transporter ([6]; parent drugs): P‐gp inhibitor
- NK1 receptor occupancy in the striatum (NK1 receptor [7]): 92.5%
- CYP3A4 inhibition (CYP3A4): moderate inhibitor
- combined effect on triggering NK1 receptor internalization (NK1 receptor [8]): additive effects
- combined effect on inhibition of substance P-mediated response (NG108‐15 cells): synergistic effects
- fold increase of AUCinf [9, 25]: 2.4 fold
- fold increase of Cmax [9, 25]: 1.2 fold
- fold decrease of AUCinf [9, 26]: 4.9 fold
- fold decrease of Cmax [9, 26]: 2.2 fold
- PK interaction between netupitant and palonosetron [10]: no relevant PK interactions
- Cmax ([11]; mean (CV%)): 567.3 (38.2) ng/mL
- Tmax ([11]; mean (CV%)): 4.02 (59.1) h
- t1/2 ([11]; mean (CV%)): 92.8 (32.8) h
- CL/F ([11]; value (%RSE)): 20.5 (%RSE 16.3) L/h
- CL/F ([22]; fasted): 20.5 (52.7) L/h
- Cmax ([22]; fasted): 596.4 (39.1) ng/mL
- Tmax ([22]; fasted): 5.14 (17.3) h
- Vz/F ([22]; fasted): 2851 (57.3) L
- t1/2 ([22]; fasted): 101.2 (52.2) h
- CL/F ([22]; fed): 16.3 (23.1) L/h
- Cmax ([22]; fed): 649.8 (21.8) ng/mL
- Tmax ([22]; fed): 5.66 (17.1) h
- Vz/F ([22]; fed): 1984 (40.1) L
- t1/2 ([22]; fed): 86.3 (46.2) h
- AUCinf and Cmax under fed (high-fat breakfast) vs fasting conditions ([22]; open, randomized, 2-way crossover study in healthy volunteers): similar
- mass balance recovery of total radioactivity in urine ([24]; [14C]-netupitant and its metabolites M1, M2, and M3): 4.75%
- administered dose excreted through the feces (hepatic/biliary route) ([24]; netupitant and its metabolites): 87% and 86.5%
